Laboratory results as given in patent publication US6420147B1, “Haloalkaliphilic microorganisms” (Genencor International, Inc., priority 1991, dated 2002).

Legend:
Strain 103Nt.4 = test: Antibiotic sensitivity (susceptibility test disks on Medium A agar); format: cell-based; conditions: antibiotic disks (contents in Appendix C), 37° C., up to 14 days
Description: (§1) A light suspension of bacteria in alkaline, saline, nutrient broth was spread on the surface of alkaline nutrient, saline agar (Medium A) and allowed to dry. Commercially available antibiotic susceptibility test disks (Oxoid or Mast Laboratories: Merseyside, U.K.) were applied to the agar surface. The bacteria were cultivated at 37° C. for up to 14 days. Clear zones around the antibiotic disks indicated sensitivity and were recorded as positive.

Strain 31M.4 = test: as above; format: cell-based; conditions: antibiotic disks (contents in Appendix C), 37° C., up to 14 days
Description: as §1

Strain 86M.4 = test: as above; format: cell-based; conditions: antibiotic disks (contents in Appendix C), 37° C., up to 14 days
Description: as §1

Strain 931LM.4 = test: as above; format: cell-based; conditions: antibiotic disks (contents in Appendix C), 37° C., up to 14 days
Description: as §1

Strain 93dLM.4 = test: as above; format: cell-based; conditions: antibiotic disks (contents in Appendix C), 37° C., up to 14 days
Description: as §1

Strain 95LM.4 = test: as above; format: cell-based; conditions: antibiotic disks (contents in Appendix C), 37° C., up to 14 days
Description: as §1

Strain 98Nt.4 = test: as above; format: cell-based; conditions: antibiotic disks (contents in Appendix C), 37° C., up to 14 days
Description: as §1

[1] = tested on: Cluster 1 haloalkaliphilic bacteria; test: Antibiotic sensitivity, distribution of positive characters; format: cell-based; conditions: share of strains of cluster 1 (78.5% similarity level, SSM) scored positive = clear zone around antibiotic disk; Medium A agar, 37° C., up to 14 days
Description: as §1

[2] = tested on: Cluster 2 haloalkaliphilic bacteria; test: as above; format: cell-based; conditions: share of strains of cluster 2 (78.5% similarity level, SSM) scored positive = clear zone around antibiotic disk; Medium A agar, 37° C., up to 14 days
Description: as §1

[3] = tested on: Cluster 3 haloalkaliphilic bacteria; test: as above; format: cell-based, haloalkaliphilic eubacteria; conditions: share of strains of cluster 3 (78.5% similarity level, SSM) scored positive = clear zone around antibiotic disk; Medium A agar, 37° C., up to 14 days
Description: as §1

[4] = tested on: Cluster 4 haloalkaliphilic bacteria; test: as above; format: cell-based, haloalkaliphilic eubacteria; conditions: share of strains of cluster 4 (78.5% similarity level, SSM) scored positive = clear zone around antibiotic disk; Medium A agar, 37° C., up to 14 days
Description: as §1

Row | SMILES | Inhibition of growth by antibiotic (Strain 103Nt.4) | Inhibition of growth by antibiotic (Strain 31M.4) | Inhibition of growth by antibiotic (Strain 86M.4) | Inhibition of growth by antibiotic (Strain 931LM.4) | Inhibition of growth by antibiotic (Strain 93dLM.4) | Inhibition of growth by antibiotic (Strain 95LM.4) | Inhibition of growth by antibiotic (Strain 98Nt.4) | Distribution of positive characters: antibiotic sensitivity, Cluster 1 [1] | Distribution of positive characters: antibiotic sensitivity, Cluster 2 [2] | Distribution of positive characters: antibiotic sensitivity, Cluster 3 [3] | Distribution of positive characters: antibiotic sensitivity, Cluster 4 [4]
1 | CC1(C)S[C@@H]2[C@H](NC(=O)[C@H](N)c3ccccc3)C(=O)N2[C@H]1C(=O)O [ampicillin] | inhibited | inhibited | not inhibited | inhibited | inhibited | inhibited | not inhibited | 0 | 0 | 100 | 67
2 | CC[C@H]1OC(=O)[C@H](C)[C@@H](O[C@H]2C[C@@](C)(OC)[C@@H](O)[C@H](C)O2)[C@H](C)[C@@H](O[C@@H]2O[C@H](C)C[C@H](N(C)C)[C@H]2O)[C@](C)(O)C[C@@H](C)C(=O)[C@H](C)[C@@H](O)[C@]1(C)O [erythromycin] | not inhibited | inhibited | inhibited | inhibited | inhibited | inhibited | inhibited | 86 | 73 | 100 | 100
3 | CO[C@@H]1[C@@H](OC(N)=O)[C@@H](O)[C@H](Oc2ccc3c(O)c(NC(=O)c4ccc(O)c(CC=C(C)C)c4)c(=O)oc3c2C)OC1(C)C [novobiocin] | inhibited | inhibited | inhibited | inhibited | inhibited | inhibited | inhibited | 100 | 82 | 33 | 100
4 | [H]/N=C(/N)N[C@H]1[C@H](O)[C@@H](O)[C@H](O[C@@H]2O[C@@H](C)[C@](O)(C=O)[C@H]2O[C@@H]2O[C@@H](CO)[C@H](O)[C@@H](O)[C@@H]2NC)[C@@H](N/C(N)=N\[H])[C@@H]1O [streptomycin] | inhibited | inhibited | not inhibited | inhibited | not inhibited | not inhibited | not inhibited | 0 | 18 | 67 | 0
